Data as given in PubChem BioAssay (NCI).
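96-well plates; 48 h exposure; 5 concentrations. Endpoints by linear interpolation between flanking doses. Not reached: highest tested concentration assigned. GI50: concentration for 50% inhibition of growth. TGI is the concentration that stops growth completely.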

Assays:
Assay in all cases: growth of human tumour cells (NCI), 48 h
[1] = system: LOX IMVI melanoma
[2] = system: HCT-116 colon
[3] = system: CAKI-1 renal
[4] = system: MDA-MB-435
[5] = system: NCI-H460 lung
[6] = system: SF-268 CNS
[7] = system: 786-0 renal
[8] = system: NCI-H23 lung
[9] = system: SR leukemia
[10] = system: UACC-257 melanoma
[11] = system: UACC-62 melanoma
[12] = system: RXF 393 renal
[13] = system: PC-3 prostate
[14] = system: RPMI-8226 leukemia
[15] = system: TK-10 renal
[16] = system: COLO 205 colon
[17] = system: U251 CNS
[18] = system: HOP-62 NSCLC
[19] = system: OVCAR-3 ovarian
[20] = system: SK-MEL-2 melanoma
[21] = system: BT-549 breast
[22] = system: OVCAR-5 ovarian
[23] = system: A549 NSCLC
[24] = system: SK-OV-3 ovarian
[25] = system: HL-60(TB) leukemia
[26] = system: IGROV1 ovarian
[27] = system: MDA-MB-231 breast
[28] = system: HCC-2998 colon
[29] = system: T-47D breast
[30] = system: A498 renal
[31] = system: HOP-92 NSCLC
[32] = system: SF-295 CNS
[33] = system: M14 melanoma
[34] = system: OVCAR-8 ovarian
[35] = system: HT29 colon
[36] = system: NCI-H226 lung
[37] = system: NCI/ADR-RES ovarian
[38] = system: K-562 leukemia
[39] = system: ACHN renal
[40] = system: SF-539 CNS
[41] = system: MOLT-4 leukemia
[42] = system: SN12C renal
[43] = system: DU-145 prostate
[44] = system: NCI-H522 lung
[45] = system: SNB-19 CNS
[46] = system: CCRF-CEM leukemia
[47] = system: MALME-3M melanoma
[48] = system: SNB-75 CNS
[49] = system: SK-MEL-28 melanoma
[50] = system: SK-MEL-5 melanoma
[51] = system: KM12 colon
[52] = system: EKVX NSCLC
[53] = system: UO-31 renal
[54] = system: HS 578T breast
[55] = system: HCT-15 colon
[56] = system: OVCAR-4 ovarian
[57] = system: SW-620 colon

## Cn1c(/C=C(\C#N)c2cccc(C(F)(F)F)c2)nc2c(N3CCOCC3)nc(Cl)nc21
[1]
  GI50: 0.321 µM
  TGI: 1.36 µM
[2]
  GI50: 0.178 µM
  TGI: 0.398 µM
[3]
  GI50: 0.656 µM
  TGI: 1.97 µM
[4]
  GI50: 1.02 µM
  TGI: 2.43 µM
[5]
  GI50: 1.67 µM
  TGI: 3.61 µM
[6]
  GI50: 1.51 µM
  TGI: 3.25 µM
[7]
  GI50: 1.43 µM
  TGI: 2.82 µM
[8]
  GI50: 1.49 µM
  TGI: 3.18 µM
[9]
  GI50: 0.337 µM
  TGI: 1.86 µM
[10]
  GI50: 1.37 µM
  TGI: 2.89 µM
[11]
  GI50: 0.973 µM
  TGI: 2.28 µM
[12]
  GI50: 0.613 µM
  TGI: 1.93 µM
[13]
  GI50: 0.726 µM
  TGI: 2.5 µM
[14]
  GI50: 0.252 µM
  TGI: 0.802 µM
[15]
  GI50: 1.72 µM
  TGI: 3.14 µM
[16]
  GI50: 1.12 µM
  TGI: 2.67 µM
[17]
  GI50: 1.32 µM
  TGI: 2.73 µM
[18]
  GI50: 1.45 µM
  TGI: 3.2 µM
[19]
  GI50: 0.665 µM
  TGI: 1.87 µM
[20]
  GI50: 1.47 µM
  TGI: 2.96 µM
[21]
  GI50: 0.569 µM
  TGI: 1.96 µM
[22]
  GI50: 1.32 µM
  TGI: 2.87 µM
[23]
  GI50: 1.31 µM
  TGI: 3.3 µM
[24]
  GI50: 3.7 µM
  TGI: 14.5 µM
[25]
  GI50: 0.486 µM
  TGI: 2.54 µM
[26]
  GI50: 0.556 µM
  TGI: 1.89 µM
[27]
  GI50: 1.05 µM
  TGI: 2.3 µM
[28]
  GI50: 1.67 µM
  TGI: 3.2 µM
[29]
  GI50: 0.846 µM
  TGI: 3.25 µM
[30]
  GI50: 1.38 µM
  TGI: 2.72 µM
[31]
  GI50: 0.342 µM
  TGI: 1.89 µM
[32]
  GI50: 1.83 µM
  TGI: 3.93 µM
[33]
  GI50: 0.733 µM
  TGI: 2.08 µM
[34]
  GI50: 0.567 µM
  TGI: 2.16 µM
[35]
  GI50: 0.369 µM
  TGI: 1.38 µM
[36]
  GI50: 1.36 µM
  TGI: 3.18 µM
[37]
  GI50: 1.72 µM
  TGI: 6.72 µM
[38]
  GI50: 0.344 µM
  TGI: 4.03 µM
[39]
  GI50: 0.444 µM
  TGI: 1.57 µM
[40]
  GI50: 1.25 µM
  TGI: 2.52 µM
[41]
  GI50: 0.381 µM
  TGI: 1.55 µM
[42]
  GI50: 0.829 µM
  TGI: 2.14 µM
[43]
  GI50: 1.22 µM
  TGI: 2.48 µM
[44]
  GI50: 0.657 µM
  TGI: 2.32 µM
[45]
  GI50: 1.44 µM
  TGI: 2.8 µM
[46]
  GI50: 0.23 µM
  TGI: 0.75 µM
[47]
  GI50: 1.39 µM
  TGI: 2.79 µM
[48]
  GI50: 0.159 µM
  TGI: 1.15 µM
[49]
  GI50: 1.48 µM
  TGI: 2.86 µM
[50]
  GI50: 1.6 µM
  TGI: 2.97 µM
[51]
  GI50: 1.82 µM
  TGI: 3.58 µM
[52]
  GI50: 1.21 µM
  TGI: 2.73 µM
[53]
  GI50: 0.422 µM
  TGI: 1.84 µM
[54]
  GI50: 1.26 µM
  TGI: 4.38 µM
[55]
  GI50: 0.221 µM
  TGI: 0.61 µM
[56]
  GI50: 1 µM
  TGI: 2.41 µM
[57]
  GI50: 0.377 µM
  TGI: 1.4 µM
